Test results from ChEMBL document CHEMBL5143742, “Discovery and Characterization of a Novel Series of Chloropyrimidines as Covalent Inhibitors of the Kinase MSK1” (ACS Med Chem Lett, 2022).

Assays:
[1] = Intrinsic clearance in human liver microsomes assessed per mg protein; assay type: ADME, Microsome
[2] = Lipophilicity, log D of the compound; assay type: physicochemical; conditions: octanol/water
[3] = Intrinsic clearance in mouse liver microsomes assessed per mg protein; assay type: ADME, Microsome

CLH [1]: 11.7 µL/min | logD [2]: 2.3 | CLH [3]: 131 µL/min
Structure (SMILES): Clc1ncc(Cl)c(-n2ccc3ncccc32)n1
